Active and inactive are the calls of the source.
Experiments:
Troponin, cardiac muscle = Troponin, cardiac muscle (Homo sapiens, UniProt P19429+P45379+P63316); experiment: Fluorescence-based biochemical high throughput dose response assay for activators of the calcium sensitivity of cardiac Regulated Thin Filaments (RTF). [Related pubchem assays (depositor defined):AID493008, AID493018, AID504382, AID504383]; assay type: protein-complex assay
Cannabinoid receptor 2 [1] = target: T1, Cannabinoid receptor 2 (Homo sapiens, UniProt P34972); experiment: SAR analysis of antagonists of the Cannabinoid Receptor 2 using an Image-Based Assay - Set 2. [Related pubchem assays (depositor defined):AID1961, AID1965]; assay type: functional
T1 sequence (P34972 whole entry): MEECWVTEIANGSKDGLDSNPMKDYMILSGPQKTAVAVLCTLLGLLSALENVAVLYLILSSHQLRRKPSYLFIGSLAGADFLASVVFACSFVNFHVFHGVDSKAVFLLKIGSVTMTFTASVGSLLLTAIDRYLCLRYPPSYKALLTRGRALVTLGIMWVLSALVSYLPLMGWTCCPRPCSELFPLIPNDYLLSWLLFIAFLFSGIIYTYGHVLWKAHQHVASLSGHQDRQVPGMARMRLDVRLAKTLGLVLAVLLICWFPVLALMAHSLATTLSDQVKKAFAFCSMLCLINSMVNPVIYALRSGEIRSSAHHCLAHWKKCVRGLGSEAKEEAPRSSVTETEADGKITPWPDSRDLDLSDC

Cannabinoid receptor 1 [2] = target: T2, Cannabinoid receptor 1 (Homo sapiens, UniProt P21554); experiment: SAR analysis of antagonists of the Cannabinoid Receptor 1 using an Image-Based Assay - Set 3. [Related pubchem assays (depositor defined):AID1961, AID1965]; assay type: functional
T2 sequence (P21554 whole entry): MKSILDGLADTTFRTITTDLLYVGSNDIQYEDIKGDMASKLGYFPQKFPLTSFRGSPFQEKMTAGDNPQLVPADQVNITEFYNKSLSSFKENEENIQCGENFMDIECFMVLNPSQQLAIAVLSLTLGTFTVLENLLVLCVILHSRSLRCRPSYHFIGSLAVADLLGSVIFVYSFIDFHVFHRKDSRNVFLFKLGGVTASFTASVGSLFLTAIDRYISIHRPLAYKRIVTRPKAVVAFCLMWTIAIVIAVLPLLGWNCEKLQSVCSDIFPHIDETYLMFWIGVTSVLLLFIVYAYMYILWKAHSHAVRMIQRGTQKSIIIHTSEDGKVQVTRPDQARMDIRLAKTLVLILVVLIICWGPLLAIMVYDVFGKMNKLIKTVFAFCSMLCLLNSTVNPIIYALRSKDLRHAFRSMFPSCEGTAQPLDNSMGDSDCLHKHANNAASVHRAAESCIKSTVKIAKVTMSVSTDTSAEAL

[3] = target: T3, G-protein coupled receptor 35 (Homo sapiens, UniProt Q9HC97); experiment: SAR analysis of Agonists of the GPR35 Receptor using an Image-Based Assay - Set 3. [Related pubchem assays (depositor defined):AID1961, AID1965]; assay type: functional
T3 sequence (Q9HC97 whole entry): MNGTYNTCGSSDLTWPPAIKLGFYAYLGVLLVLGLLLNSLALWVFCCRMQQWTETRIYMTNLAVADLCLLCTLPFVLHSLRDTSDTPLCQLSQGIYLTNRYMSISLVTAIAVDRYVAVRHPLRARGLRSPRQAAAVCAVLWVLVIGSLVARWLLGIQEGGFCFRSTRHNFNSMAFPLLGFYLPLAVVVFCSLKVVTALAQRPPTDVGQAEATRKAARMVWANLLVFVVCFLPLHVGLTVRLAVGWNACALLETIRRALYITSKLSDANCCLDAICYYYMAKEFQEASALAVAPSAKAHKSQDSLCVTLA

Cannabinoid receptor 2 [4] = target: T1, Cannabinoid receptor 2; experiment: SAR analysis of agonists of the Cannabinoid Receptor 2 using an Image-Based Assay - Set 2. [Related pubchem assays (depositor defined):AID1961, AID1965]; assay type: functional
[5] = target: T3, G-protein coupled receptor 35; experiment: SAR analysis of Antagonists of the GPR35 Receptor using an Image-Based Assay - Set 4. [Related pubchem assays (depositor defined):[…]]; assay type: functional
[6] = target: G-protein coupled receptor 55 (Homo sapiens, UniProt Q9Y2T6); experiment: SAR analysis of selective Agonists of GPR55 using an Image-Based Assay - Set 2. [Related pubchem assays (depositor defined):AID1961, AID1965]; assay type: functional
Chain of G-protein coupled receptor 55 (Q9Y2T6 whole entry): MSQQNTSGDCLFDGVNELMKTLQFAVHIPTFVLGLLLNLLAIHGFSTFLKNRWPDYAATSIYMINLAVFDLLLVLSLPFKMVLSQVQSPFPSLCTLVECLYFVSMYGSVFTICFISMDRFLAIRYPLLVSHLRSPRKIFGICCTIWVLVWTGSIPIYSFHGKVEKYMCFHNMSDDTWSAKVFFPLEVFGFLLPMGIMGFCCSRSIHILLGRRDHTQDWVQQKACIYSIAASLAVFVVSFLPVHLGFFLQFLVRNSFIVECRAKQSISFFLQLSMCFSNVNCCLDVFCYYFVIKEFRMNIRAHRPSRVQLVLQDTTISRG

Cannabinoid receptor 1 [7] = target: T2, Cannabinoid receptor 1; experiment: SAR analysis of agonists of the Cannabinoid Receptor 1 using an Image-Based Assay - Set 3. [Related pubchem assays (depositor defined):AID1961, AID1965]; assay type: functional
[8] = target: Intestinal-type alkaline phosphatase (Homo sapiens, UniProt P09923); experiment: human intestinal alkaline phosphatase activators, dose response, biochemical, luminescence, uHTS hits (AID 463120); assay type: functional
Chain of Intestinal-type alkaline phosphatase (P09923 whole entry): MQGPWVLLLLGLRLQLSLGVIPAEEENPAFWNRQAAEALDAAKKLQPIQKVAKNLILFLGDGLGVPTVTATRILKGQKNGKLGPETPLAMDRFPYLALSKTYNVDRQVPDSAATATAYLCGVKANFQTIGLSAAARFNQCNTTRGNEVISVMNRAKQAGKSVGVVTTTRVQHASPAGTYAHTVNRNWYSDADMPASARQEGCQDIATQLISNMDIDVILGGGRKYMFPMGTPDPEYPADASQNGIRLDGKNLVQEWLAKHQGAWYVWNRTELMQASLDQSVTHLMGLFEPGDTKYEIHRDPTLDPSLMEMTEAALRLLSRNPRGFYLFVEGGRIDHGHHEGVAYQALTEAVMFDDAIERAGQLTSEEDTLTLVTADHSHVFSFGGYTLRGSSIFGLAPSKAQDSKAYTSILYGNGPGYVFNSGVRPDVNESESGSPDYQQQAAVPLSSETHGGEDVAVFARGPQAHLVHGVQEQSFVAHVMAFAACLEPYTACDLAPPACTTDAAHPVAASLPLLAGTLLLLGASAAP

Bcl-2-related protein A1 = target: T4, Bcl-2-related protein A1 (Mus musculus, UniProt Q07440); assay type: functional;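 note: confirmatory dose–response counterscreen on Bfl-1, used to check hits from a UBC13 polyubiquitin inhibitor campaign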
T4 sequence (Q07440 whole entry): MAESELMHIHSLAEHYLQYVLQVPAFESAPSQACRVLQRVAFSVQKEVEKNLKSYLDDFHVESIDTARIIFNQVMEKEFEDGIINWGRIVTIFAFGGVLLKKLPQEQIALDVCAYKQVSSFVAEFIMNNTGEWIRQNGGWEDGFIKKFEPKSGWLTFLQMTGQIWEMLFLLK

[9] = target: T5, Ubiquitin-conjugating enzyme E2 N (Homo sapiens, UniProt P61088); assay type: functional
T5 sequence (P61088 whole entry): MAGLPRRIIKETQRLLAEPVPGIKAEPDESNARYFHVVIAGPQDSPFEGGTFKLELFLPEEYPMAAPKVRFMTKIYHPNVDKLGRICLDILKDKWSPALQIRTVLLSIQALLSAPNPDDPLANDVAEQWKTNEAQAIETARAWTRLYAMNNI

[10] = HEp-2 cell cytotoxicity, dose response, cytotoxicity control for RSV inhibitor project, HTS (AID 2410); assay type: functional; conditions: human respiratory syncytial virus
[11] = target: T5, Ubiquitin-conjugating enzyme E2 N; assay type: functional; remark: listed apart in the source
Large T antigen = Large T antigen (Simian virus 40, UniProt P03070); experiment: A confirmatory biochemical assay using the ADP-Hunter methodology, purified TAg, and ATP to quantify activity of synthesized compounds that inhibit the ATPase activity of Tag (3). [Related pubchem assays (depositor defined):AID1903, AID1909, AID2102, AID2501, AID2615, AID2775, AID435001, AID449729]; set-up: species or system Betapolyomavirus macacae
Chain of Large T antigen (P03070 whole entry): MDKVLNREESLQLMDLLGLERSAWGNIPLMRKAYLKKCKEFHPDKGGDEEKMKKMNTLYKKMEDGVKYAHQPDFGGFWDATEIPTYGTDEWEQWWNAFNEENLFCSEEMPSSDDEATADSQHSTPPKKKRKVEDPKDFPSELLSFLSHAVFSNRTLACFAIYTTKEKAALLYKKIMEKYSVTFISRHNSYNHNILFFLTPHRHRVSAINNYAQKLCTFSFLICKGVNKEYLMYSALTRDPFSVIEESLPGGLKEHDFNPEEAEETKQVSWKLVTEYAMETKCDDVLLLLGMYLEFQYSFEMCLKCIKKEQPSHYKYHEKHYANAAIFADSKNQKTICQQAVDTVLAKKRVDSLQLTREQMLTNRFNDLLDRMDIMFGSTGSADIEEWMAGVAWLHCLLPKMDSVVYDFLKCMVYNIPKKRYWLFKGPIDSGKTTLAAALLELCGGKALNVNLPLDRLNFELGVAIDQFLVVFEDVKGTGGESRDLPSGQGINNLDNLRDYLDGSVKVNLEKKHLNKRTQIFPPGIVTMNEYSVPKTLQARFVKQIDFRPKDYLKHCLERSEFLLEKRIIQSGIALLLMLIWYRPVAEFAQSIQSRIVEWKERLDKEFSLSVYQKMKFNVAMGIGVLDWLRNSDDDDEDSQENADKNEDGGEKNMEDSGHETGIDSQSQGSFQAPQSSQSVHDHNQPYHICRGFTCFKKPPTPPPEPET

[12] = SV40 cytopathic effect inhibition and cytotoxicity, confirmation, BSC cells, set 3 (AID 485276); assay type: functional, cell-based

Structure (SMILES): Cc1sc(NC(=O)CSc2nnc(C(C)C)n2C)c(C#N)c1C
- EC50 (Troponin, cardiac muscle): > 71.5 µM (inactive)

Structure (SMILES): Cc1cccc(N2CCN(C(=O)c3cccc(S(=O)(=O)N4CCCCC4)c3)CC2)c1C
- IC50 (Cannabinoid receptor 2 [1]): > 32 µM (inactive)
- IC50 (Cannabinoid receptor 1 [2]): > 32 µM (inactive)
- EC50 [3]: > 32 µM (inactive)
- EC50 (Cannabinoid receptor 2 [4]): > 32 µM (inactive)
- IC50 [5]: > 32 µM (inactive)
- EC50 [6]: > 32 µM (inactive)
- EC50 (Cannabinoid receptor 1 [7]): > 32 µM (inactive)

Structure (SMILES): C#CCOCCOCCOCCNc1nc(N2CCN(C(=O)CCCCCCCCCCNC(=O)[C@H]([C@@H](C)CC)n3cc(CCCCN=C(N)N)nn3)CC2)nc(N2CCN(C(=O)CCCCCCCCCCNC(=O)[C@H](CO)n3cc(CCCSC)nn3)CC2)n1
- EC50 [8]: 40.7 µM (active)
- IC50 (Bcl-2-related protein A1): 3.11 µM (active)
- IC50 [9]: 3.7 µM (active)
- CC50 [10]: 13.7 µM (active)
- IC50 [11]: 5.99 µM (active)

Structure (SMILES): Oc1ccc(Sc2ccc(O)cc2O)c(O)c1
- IC50 (Large T antigen): 61.2 µM (active)
- IC50 [12]: 146 µM (active)

Reference: ChEMBL document CHEMBL1201862, “PubChem BioAssay data set” (2004)
